For one molecule, IC50 results are on record in article PMC6066518, “Homology Modeling Informs Ligand Discovery for the Glutamine Transporter ASCT2” (Frontiers in Chemistry, 2018).

The IC50 is the concentration at which inhibition is half-maximal. Read a low IC50 as higher potency.

The target of the experiment is T1, ASCT2 (Rattus norvegicus, UniProt D3ZJ25).
T1 construct: gene Slc1a5
T1 sequence (D3ZJ25 1-555): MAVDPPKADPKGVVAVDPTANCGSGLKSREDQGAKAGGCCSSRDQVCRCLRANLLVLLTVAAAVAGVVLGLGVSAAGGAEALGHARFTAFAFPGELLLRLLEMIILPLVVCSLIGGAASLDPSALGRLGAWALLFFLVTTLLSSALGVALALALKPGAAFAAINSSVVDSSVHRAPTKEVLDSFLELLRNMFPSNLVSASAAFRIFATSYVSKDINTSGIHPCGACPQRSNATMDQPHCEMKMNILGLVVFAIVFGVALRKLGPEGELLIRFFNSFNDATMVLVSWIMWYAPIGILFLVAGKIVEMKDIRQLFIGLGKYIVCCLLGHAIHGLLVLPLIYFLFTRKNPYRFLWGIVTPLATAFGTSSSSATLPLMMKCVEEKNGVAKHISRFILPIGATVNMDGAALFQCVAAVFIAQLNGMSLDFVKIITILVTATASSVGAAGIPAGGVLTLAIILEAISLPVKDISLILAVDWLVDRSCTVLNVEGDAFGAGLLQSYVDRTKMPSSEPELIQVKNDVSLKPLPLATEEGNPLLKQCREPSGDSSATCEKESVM
Kind of experiment: whole-cell current recording, inhibition of anion leak current in HEK293 cells expressing rat ASCT2. In kind it is cell-based.

The molecule `Cc1ccccc1C1(CNC(=O)NC(C(N)=O)c2ccccc2)CC1` (stereo not shown) [compound 10] had a half-inhibitory concentration (IC50) of 67 ± 17 µM.
